Values joined by “and” are separate entries in the source; they are usually repeats but may differ in a detail not shown here. Equal entries are not always repeated.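 48-hour exposure; five concentrations; linearly interpolated endpoints. Here, GI50 denotes the concentration required for 50% inhibition of growth. TGI marks complete inhibition of growth.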 Where a SMILES comes first, the peptide text is derived from it. [ ]: non-standard residue; d: D form. The star is where a group is joined. AllylGly = C=CC[CH](N)C(=O)O; Boc = CC(C)(C)OC(=O)*; OtBu = CC(C)(C)O*
Experiments:
Test in all cases: DTP human tumour cell line panel, 48 h
HCT-15 colon = tested on: HCT-15 colon
HOP-62 NSCLC = tested on: HOP-62 NSCLC
LOX IMVI melanoma = tested on: LOX IMVI melanoma
MALME-3M melanoma = tested on: MALME-3M melanoma
NCI-H226 lung = tested on: NCI-H226 lung
OVCAR-4 ovarian = tested on: OVCAR-4 ovarian
RXF 393 renal = tested on: RXF 393 renal
SN12C renal = tested on: SN12C renal
SW-620 colon = tested on: SW-620 colon
T-47D breast = tested on: T-47D breast

| SMILES | TGI (HCT-15 colon) | TGI (HOP-62 NSCLC) [µM] | TGI (LOX IMVI melanoma) [µM] | TGI (MALME-3M melanoma) | TGI (NCI-H226 lung) [µM] | TGI (OVCAR-4 ovarian) [µM] | TGI (RXF 393 renal) [µM] | TGI (SN12C renal) | TGI (SW-620 colon) | TGI (T-47D breast) [µM] | GI50 (HCT-15 colon) [µM] | GI50 (HOP-62 NSCLC) [µM] | GI50 (LOX IMVI melanoma) [µM] | GI50 (MALME-3M melanoma) [µM] | GI50 (NCI-H226 lung) [µM] | GI50 (OVCAR-4 ovarian) [µM] | GI50 (RXF 393 renal) [µM] | GI50 (SN12C renal) [µM] | GI50 (SW-620 colon) [µM] | GI50 (T-47D breast) [µM] |
| --- | --- | --- | --- | --- | --- | --- | --- | --- | --- | --- | --- | --- | --- | --- | --- | --- | --- | --- | --- | --- |
| CCOc1ccc(/C(O)=C/c2nc3ccccc3nc2/C=C(\O)c2ccc(OCC)cc2)cc1 | > 100 µM | > 100 | > 100 | > 100 µM | > 100 | > 100 | > 100 | > 100 µM | > 100 µM | > 100 | – | – | – | – | – | – | – | – | – | – |
| CC(C)NC(=O)CN1CCN(C2=CC(=O)c3c(O)ccc(O)c3C2=O)CC1 | 45.3 µM | 32.3 | 19.6 | 4.41 µM | > 68.8 | 20.3 | 33.2 | 29.1 µM | 14.4 µM | 24.7 | – | – | – | – | – | – | – | – | – | – |
| CCNC1(c2cccc(C)c2)OC(C)(C)c2cccc3cccc1c23 (stereo not given) | 42.9 µM | 48.9 | 32.6 | 34.3 µM | 39 | 29.9 | 32.1 | 35.9 µM | 36.6 µM | > 100 | – | – | – | – | – | – | – | – | – | – |
| COc1ccc(-c2csc(=Nc3ccccc3)n2CC(O)c2ccc([N+](=O)[O-])cc2)cc1 (stereo not given) | > 100 µM | > 100 | > 100 | > 100 µM | > 100 | > 100 | > 100 | > 100 µM | > 100 µM | > 100 | – | – | – | – | – | – | – | – | – | – |
| O=C(O)C1CCCN1Cc1cc2ccccc2c2ccccc12 (stereo not given) | > 100 µM | > 100 | > 100 | > 100 µM | > 100 | > 100 | > 100 | > 100 µM | > 100 µM | > 100 | – | – | – | – | – | – | – | – | – | – |
| CN(C)CCNc1ccc2c(=O)n(CCN(C)C)c(=O)n3c4ccc([N+](=O)[O-])cc4c(=O)c1c23 | 1.49 µM | 3.85 | 1.1 | 1.37 µM | 4.01 | 2.8 | 0.996 | 1.56 µM | 1.78 µM | 6.89 | – | – | – | – | – | – | – | – | – | – |
| COc1ccc(N2C(=O)C3ON(C(C(N)=O)c4ccccc4)C(c4ccc(-c5ccccc5)cc4)C3C2=O)cc1 (stereo not given) | > 50 µM | > 50 | > 50 | > 50 µM | > 50 | > 50 | > 50 | > 50 µM | > 50 µM | > 50 | – | – | – | – | – | – | – | – | – | – |
| Cc1[nH]c(=O)nc(N/N=C/c2ccc(Cl)cc2)c1C(=O)NC(C)(CO)CO | > 100 µM | > 100 | > 100 | > 100 µM | > 100 | > 100 | > 100 | > 100 µM | > 100 µM | > 100 | – | – | – | – | – | – | – | – | – | – |
| COc1ccc2nc3ccc(OC)cc3c(S(=O)(=O)Cc3ccc([N+](=O)[O-])cc3)c2c1 | > 100 µM | > 100 | > 100 | > 100 µM | > 100 | > 100 | > 100 | > 100 µM | > 100 µM | > 100 | – | – | – | – | – | – | – | – | – | – |
| CC(=O)C(=[N+]=[N-])C(=O)OC(C)(C)C#N | > 10 µM | > 10 | > 10 | > 10 µM | > 10 | > 10 | > 10 | > 10 µM | > 10 µM | > 10 | – | – | – | – | – | – | – | – | – | – |
| CN(NC(=O)CCCl)C1=NCCN1 | > 100 µM | > 100 | > 100 | > 100 µM | > 100 | > 100 | > 100 | > 100 µM | > 100 µM | > 100 | – | – | – | – | – | – | – | – | – | – |
| O=C1C(CN2CCCCC2)CCCC1CN1CCCCC1 (stereo not given) | 28.2 µM and 42.8 µM | > 100 | > 57.2 | 11.4 µM and 14.8 µM | > 100 | 22.2 | 31.6 | > 31.6 µM and 48.7 µM | 24.6 µM and 13.7 µM | 3.74 | – | – | – | – | – | – | – | – | – | – |
| CCCCC(=O)Nc1ccc2cc(C(=O)OC)c(ON3C(=O)c4ccccc4C3=O)nc2n1 | > 100 µM | 37.6 | > 100 | 38.5 µM | 60.2 | 81.2 | 52.3 | > 100 µM | > 100 µM | > 100 | – | – | – | – | – | – | – | – | – | – |
| CN1CN(c2ccccc2)C2(CCN(CCCSc3ccccc3NC(=O)/C=C/c3ccccc3)CC2)C1=O | 26.5 µM | 5.8 | 4.61 | 4.77 µM | 5.56 | > 37 | 31.9 | 15.1 µM | 26.3 µM | > 59.7 | – | – | – | – | – | – | – | – | – | – |
| CCc1n[nH]c(=O)n1/N=C/c1ccccc1Cl | > 100 µM | > 100 | > 100 | > 100 µM | > 100 | > 100 | > 100 | > 100 µM | > 100 µM | > 100 | – | – | – | – | – | – | – | – | – | – |
| S=C(N/N=C(/c1ccccc1)c1ccccn1)Nc1ccccc1Cl | 7.36 µM | 16.6 | 23.3 | 12.2 µM | 2.67 | 18.2 | 4.24 | 14.9 µM | 14.8 µM | 0.857 | – | – | – | – | – | – | – | – | – | – |
| C=CCC(NC(=O)C(CC(=O)OC(C)(C)C)NC(=O)OC(C)(C)C)C(=O)OC (stereo not given) (Boc-Asp(OtBu)-[AllylGly]-OMe; configuration not given here) | > 100 µM | > 100 | 41.7 | 3.04 µM | > 100 | > 100 | > 100 | > 100 µM | > 100 µM | > 100 | – | – | – | – | – | – | – | – | – | – |
| Cc1c(CCOC=O)c(=O)[nH]c2nncn12 | > 100 µM | > 100 | > 100 | > 100 µM | > 100 | > 100 | > 100 | > 100 µM | > 100 µM | > 100 | – | – | – | – | – | – | – | – | – | – |
| CC1(C)CC[C@]2(C)CC=C3[C@]4(C)CC[C@H]5C(C)(C)C(=O)CC[C@]5(C)[C@H]4CC[C@@]3(C)[C@H]2C1 | > 100 µM | > 100 | > 100 | > 100 µM | > 100 | > 100 | > 100 | > 100 µM | > 100 µM | > 100 | – | – | – | – | – | – | – | – | – | – |
| C[C@]12CC[C@@H]3c4cc(OCC(F)(F)F)c(O)cc4C(=O)C[C@H]3[C@@H]1CC[C@@H]2O | > 100 µM | > 100 | > 100 | 88.1 µM | > 100 | > 100 | 58.5 | > 100 µM | > 100 µM | > 100 | – | – | – | – | – | – | – | – | – | – |
| COCC1CCCN1c1ccc(/C=C(/C#N)C(N)=S)cc1 (stereo not given) | > 100 µM | > 100 | > 100 | > 100 µM | > 100 | > 100 | > 100 | > 100 µM | > 100 µM | > 100 | > 100 | > 100 | > 100 | > 100 | 34.6 | > 100 | > 100 | 30.5 | 79.4 | 30.6 |
| O=P(Oc1ccccc1)(Oc1ccccc1)Oc1c[nH]c2ccccc12 | 28.8 µM | 36.3 | 49.9 | 37.5 µM | 31.3 | 14.5 | 29.2 | 26 µM | 36 µM | 52.9 | – | – | – | – | – | – | – | – | – | – |
| CCCCCNc1nonc1N | > 100 µM | > 100 | > 100 | > 100 µM | > 100 | > 100 | > 100 | > 100 µM | > 100 µM | > 100 | – | – | – | – | – | – | – | – | – | – |
| CC(C)C1(C)N=C(C(F)(F)F)c2cc(C(=O)C(F)(F)F)c3ccccc3c2N1 (stereo not given) | 14.1 µM | 18.5 | 7.01 | 12.7 µM | 30.4 | 18.9 | 10.1 | 11 µM | > 51.6 µM | 11.4 | – | – | – | – | – | – | – | – | – | – |
